Results as given in US20140037620A1, “Methods of Treating Breast Cancer with Gemcitabine Therapy” (British Columbia Cancer Agency Branch, priority 2012, published 2014).
Read-outs that look alike come from different tables or passages of the source.

Columns and labels:
[1] = test system: women with locally advanced or metastatic breast cancer; conditions: for effect on OS / relative reduction for TTP: GD v D; for relative reduction in mortality from the addition of gemcitabine to docetaxel compared to docetaxel alone: patients with basal-like subtype (PAM50)
Procedure: Patients were randomly assigned to docetaxel (100 mg/m^2) day 1, every 21 days or gemcitabine (1000 mg/m^2) days 1 and 8 plus docetaxel (75 mg/m^2) day 8. Patients were either previously untreated, had prior anthracycline-based (neo)adjuvant chemotherapy or had received a single prior anthracycline-based chemotherapy regimen for metastatic breast cancer. The Danish Breast Cancer Cooperative Group (DBCG) prepared the original protocol as well as the biomarker supplement, and the Danish National Committee on Biomedical Research Ethics has approved the original protocol as well as the add-on (KF 02-045-01 and H-KF-02-045-01) before their activation. Time to progression (TTP) was the primary endpoint for the original trial as well as this biomarker sub-study (Nielsen et al., JCO 2011; 29:4748-4754). Overall survival (OS) and response rate (RR) were secondary endpoints. TTP was measured from random assignment to date of documented progression with censoring at date of last visit or of death. OS was calculated from date of random assignment to date of death with censoring for surviving patients at last visit date. Time-to-event endpoints (TTP and OS) were estimated by the Kaplan-Meier method, and PAM50 subtypes were compared using the log-rank test. Analyses of PAM50 subtypes were done unadjusted and adjusted for preselected covariates in multivariate Cox proportional hazards models. […] The adjusted model was further stratified for previous chemotherapy (Nielsen et al., JCO 2011; 29:4748-4754). The assumption of proportional hazards was assessed by Schoenfeld residuals. Analyses were done to assess whether treatment effects on TTP and OS varied according to PAM50 subtypes or the levels of preselected variables. The multivariate Cox proportional hazards model was extended by one interaction term at a time. The interaction terms were tested using the Wald test and results were given in a Forest plot. RR was evaluated for patients with measurable disease. […] RRs were compared by using Fisher's exact test.

[2] = test system: women with locally advanced or metastatic breast cancer; conditions: original trial, 337 women, GD v D; cited from earlier work

**Q.** What does the source list for gemcitabine plus docetaxel [GD]?
**A.** gain in median overall survival, doublet arm compared to monotherapy arm ([1]; basal-like patients, Kaplan-Meier estimates): 10 months; effect on TTP across PAM50 intrinsic subtypes ([1]; multivariate Cox regression, interaction test): TTP seemed equally improved in PAM50 intrinsic subtypes; effect on OS ([1]; patients with HER2-enriched subtype): significantly worsened OS; risk of TTP events and mortality in the doublet arm compared to single agent docetaxel ([1]; patients with HER2 amplified tumors): higher risk of TTP events; effect on OS ([1]; patients with basal-like breast cancer): significantly improved OS; effect on OS ([1]; patients with basal-like breast cancer, listed as gemcitabine and docetaxel): more substantial reduction in mortality; relative reduction in mortality from the addition of gemcitabine to docetaxel compared to docetaxel alone [1]: 71%; relative reduction in mortality from the addition of gemcitabine to docetaxel compared to docetaxel alone ([1]; listed as gemcitabine plus docetaxel): 73%; relative reduction for TTP ([1]; patients with basal-like subtype): 63%; benefit from adding gemcitabine to docetaxel ([1]; patients with highly proliferative subtypes (non-luminal A)): No support was found for a more general benefit; survival benefit compared with docetaxel monotherapy ([1]; patients with non-basal-like subtypes): no significant incremental survival benefit; relative reduction for TTP ([1]; patients with other (non-basal-like) subtypes): 37%; HR for OS, treatment effect in the original study [2]: 0.94; HR for TTP, treatment effect in the original study [2]: 0.68
